Results on 1 molecule are retold here after US12447154B2, “Use of pyrrolopyrimidine compound for treating hemophagocytic syndrome” (CHIA TAI TIANQING PHARMACEUTICAL GROUP CO., LTD., priority 2020, dated 2025).

The data set concerns patient diagnosed with hemophagocytic syndrome. The data set can be described thus: Clinical protocol for hemophagocytic syndrome (patient cases). Type of data set: in vivo, human. The procedure:
Example 1. Clinical Protocol for Hemophagocytic Syndrome
Method of administration: orally administered once before breakfast in the morning and once after 12 h, with 28 consecutive days of administration as one treatment cycle.
Drug: the compound of formula I in 5 mg or 20 mg tablets, the compound of formula I being shown as its stereoisomer, a compound of formula II
[drawing 5] 1.2. Inclusion Criteria • 1) Age ≥18 years; ECOG scoring: 0-3; an expected survival of more than 3 months; • 2) A patient unambiguously diagnosed as having a first occurrence or first recurrence of HLH according to the HLH-2004 criteria; • 3) Other medication for HLH, if any, has been interrupted for 2 weeks or more; it has been 4 weeks or more since major surgery, if any; • 4) Laboratory tests should meet the following: blood routine examination: hemoglobin (Hb)≥60 g/L; absolute neutrophil count (ANC)≥0.5×10^9/L; platelet (PLT)≥30×10^9/L; liver function: serum total bilirubin (TBIL)<171 μmol/L; renal function: serum creatinine (Cr)≤1.5×ULN; blood coagulation function: activated partial thromboplastin time (APTT) and international normalized ratio (INR)≤1.5×ULN; • 5) Female patients should agree to take contraceptive measures (such as intrauterine devices [IUD], contraceptives or condoms) during the study and for at least 6 months after the study; serum pregnancy test results should be negative within 7 days before the study, and the patients must not be breastfeeding; male subjects should agree to take contraceptive measures during the study and for at least 6 months after the study; • 6) Voluntary participation, written informed consent and good compliance. 1.3. Evaluation Method
The therapeutic effect was evaluated by referring to the criteria of “2018 HLH Chinese Expert Consensus”. During induction treatment, it was recommended to evaluate the therapeutic effect every 2 weeks.
1.4. Therapeutic Effects Case 1
A patient diagnosed with hemophagocytic syndrome was given 20 mg/dose of tablets of the compound of formula II according to the administration regimen described in 1.1. The blood was tested regularly for the plasma concentration. The indexes such as blood routine examination results, biochemical profile and blood coagulation were dynamically monitored, and the patient's condition and vital signs were continuously dynamically monitored closely.
A patient diagnosed with hemophagocytic syndrome was given 15 mg/dose of tablets of the compound of formula II according to the administration regimen described in 1.1. The blood was tested regularly for the plasma concentration. The indexes such as blood routine examination results, biochemical profile and blood coagulation were dynamically monitored, and the patient's condition and vital signs were continuously dynamically monitored closely.

Setting [1] is: Case 2, 15 mg/dose tablets orally twice a day, after one administration cycle.

In the case of `N#CC[C@H](C1CCCC1)n1cc(-c2ncnc3[nH]ccc23)c(N)n1` [compound of formula II], the disease status entry (Case 1, patient, 20 mg/dose tablets orally twice a day (12 h interval), after one administration cycle (28 days)) was “remained stable”. For the same molecule, the “tolerability of the treatment” value (Case 1, patient, 20 mg/dose tablets orally twice a day, after one administration cycle (28 days)) is given as “tolerable”. Further, where the note is “Case 2, patient, 15 mg/dose tablets orally twice a day (12 h interval), after one administration cycle (28 days)”, the disease status entry is on record as “remained stable”. For the same molecule, under setting [1], the ferritin level decrease was no less than 25%, the “sCD25 level decrease (factor)” value is on record as 3/2, the “therapeutic effect evaluation (2018 HLH Chinese Expert Consensus criteria)” value was “partial response” and the “tolerability of the treatment” value is “tolerable”.
